Test results reported in patent US7521439B2, “Glucocorticoid receptor ligands for the treatment of metabolic disorders” (Karo Bio AB, priority 2002, dated 2009).
pIC50: −log10 of the molar value. Like-named read-outs stand apart in the source and are kept apart here.

Legend:
[1] = molecular target: T1, Human glucocorticoid receptors (hGR) (Homo sapiens, UniProt P04150); test: Radioligand filter binding assay, displacement of 3(H)-dexamethasone from human glucocorticoid receptor
T1 construct: made in house; host or cells: Sf9 insect cells, baculovirus (BAC-TO-BAC)
T1 sequence (P04150 1-777): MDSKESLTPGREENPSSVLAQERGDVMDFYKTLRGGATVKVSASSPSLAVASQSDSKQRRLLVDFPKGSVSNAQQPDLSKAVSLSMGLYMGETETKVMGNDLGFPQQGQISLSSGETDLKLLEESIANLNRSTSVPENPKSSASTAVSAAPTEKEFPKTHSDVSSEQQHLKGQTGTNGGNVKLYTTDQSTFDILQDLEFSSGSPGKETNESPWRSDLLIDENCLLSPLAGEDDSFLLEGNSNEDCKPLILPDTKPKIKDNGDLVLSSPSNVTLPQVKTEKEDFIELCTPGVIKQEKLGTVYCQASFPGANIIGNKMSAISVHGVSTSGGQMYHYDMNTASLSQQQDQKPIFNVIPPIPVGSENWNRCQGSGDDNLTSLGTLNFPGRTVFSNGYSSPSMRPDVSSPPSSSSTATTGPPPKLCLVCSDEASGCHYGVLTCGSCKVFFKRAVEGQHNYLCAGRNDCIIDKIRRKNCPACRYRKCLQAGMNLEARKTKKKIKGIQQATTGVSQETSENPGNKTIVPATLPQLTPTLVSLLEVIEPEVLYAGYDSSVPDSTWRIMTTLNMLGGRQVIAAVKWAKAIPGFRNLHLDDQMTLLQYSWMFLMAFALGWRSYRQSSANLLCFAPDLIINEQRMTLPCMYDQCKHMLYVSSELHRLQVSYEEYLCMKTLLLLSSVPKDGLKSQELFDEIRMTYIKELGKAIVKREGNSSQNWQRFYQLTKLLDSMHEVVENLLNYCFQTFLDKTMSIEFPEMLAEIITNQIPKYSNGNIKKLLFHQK
Text: Methods for Radioligand Binding Studies with Human Glucocorticoid and Progesterone Receptor Cytosol
Dexamethasone hereafter referred to as dex was purchased from SIGMA. […] Human glucocorticoid receptors were extracted from Sf9 cells infected with a recombinant baculovirus transfer vector containing the cloned hGR genes. Recombinant baculovirus was generated utilizing the BAC-TO-BAC expression system (Life Technologies) in accordance to instruction from the supplier. The hGR coding sequences were cloned into a baculovirus transfer vector by standard techniques. The recombinant baculoviruses expressing hGR were amplified and used to infect Sf9 cells. Infected cells were harvested 48 hrs post infection. […] The concentration of hGR in the extract was measured as specific ^3(H)-dex binding with the G25-assay as described in J. Steroid Biochem. Molec. […] The extract was aliquoted and stored at −70° C.
The filter binding assay: Dilution series of the test compounds and dexamethasone as reference were made from 10 mM (1 mM dex) stock solutions in DMSO. 10 μl of the dilutions was added in duplicates to the wells. The cell extracts were diluted 10 fold in EPMo+MTG buffer (1 mM EDTA, HPO4 20 mM (pH8), 6 mM MTG). […] 110μl of the diluted ^3(H)-dex were added to the wells. The final concentration of hGR in the experiment was estimated to 1 nM. All preparations were made in […] on ice and with +4° C. temperated buffers. The plates were incubated overnight at +4° C. (15-20 hrs.).
The incubation was stopped by filtration through GF/B filter on the Tomtec Cellharvester. The filtration on the Tomtec Cellharvester was programmed as follows: 1) Preparation before filtration with EP buffer (1 mM EDTA 20 mM HPO4 (pH8)) 2×(Wash/Asp 0.6 sec., Asp 0.5 sec.); 2) Prewet of GF/B filter with EP+PEI buffer (EP buffer, 0.3% Polyethylenimine) (Asp 0.8 sec.); 3) Filtration/harvesting of the 96-well incubation plate 3×(Wash/Asp 0.6 sec., Asp 0.5 sec.). The GF/B filter was dried for at least 1 hr at 65° C. A MeltiLex scintillation wax was melted onto the filter with the Microsealer. The filter was placed in a samplebag, which was thereafter trimmed with scissors to fit the filter cassette. The cassette were placed in the Microbeta and measured for 1 min/position, returning ccpm (corrected counts per minute).
The Microbeta-instrument generates the mean cpm (counts per minute) value/minute and corrects for individual variations between the detectors thus generating corrected cpm values.

[2] = molecular target: T2, progesterone receptor (PR) (Homo sapiens, UniProt P06401); test: Radioligand binding assay for progesterone receptor (similar protocol); settings: similar protocol to GR binding
T2 sequence (P06401 1-933): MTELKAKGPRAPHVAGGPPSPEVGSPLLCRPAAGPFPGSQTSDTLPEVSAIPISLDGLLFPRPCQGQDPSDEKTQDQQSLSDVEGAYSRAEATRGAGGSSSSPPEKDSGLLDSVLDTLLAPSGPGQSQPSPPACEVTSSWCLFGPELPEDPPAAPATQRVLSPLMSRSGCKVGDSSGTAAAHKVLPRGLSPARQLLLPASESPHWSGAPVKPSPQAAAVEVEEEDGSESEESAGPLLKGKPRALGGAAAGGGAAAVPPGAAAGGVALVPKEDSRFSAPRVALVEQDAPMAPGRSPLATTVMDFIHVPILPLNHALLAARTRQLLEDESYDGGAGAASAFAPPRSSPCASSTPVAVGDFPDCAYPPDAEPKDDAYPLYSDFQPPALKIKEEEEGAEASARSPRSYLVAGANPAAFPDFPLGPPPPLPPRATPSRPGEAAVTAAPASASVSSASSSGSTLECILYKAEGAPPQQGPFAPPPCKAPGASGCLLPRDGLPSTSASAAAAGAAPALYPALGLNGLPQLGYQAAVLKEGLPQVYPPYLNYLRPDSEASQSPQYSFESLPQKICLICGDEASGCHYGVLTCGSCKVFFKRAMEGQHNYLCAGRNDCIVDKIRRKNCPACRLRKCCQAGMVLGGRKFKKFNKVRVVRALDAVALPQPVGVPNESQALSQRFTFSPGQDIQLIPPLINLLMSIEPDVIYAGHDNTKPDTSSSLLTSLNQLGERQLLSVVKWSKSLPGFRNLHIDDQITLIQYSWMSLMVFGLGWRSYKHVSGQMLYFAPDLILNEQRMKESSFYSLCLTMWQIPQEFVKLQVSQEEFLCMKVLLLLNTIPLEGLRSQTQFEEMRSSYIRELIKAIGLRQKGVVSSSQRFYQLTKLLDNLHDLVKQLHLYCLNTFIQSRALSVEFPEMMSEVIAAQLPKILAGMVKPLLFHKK
Text: Methods for Radioligand Binding Studies with Human Glucocorticoid and Progesterone Receptor Cytosol A similar protocol was employed to measure affinity of the compounds of the present invention for progesterone receptor (PR).

GR-mediated responses = test: Rat prednisolone challenge model (hepatic TAT, hepatic glycogen, blood lymphocytes); assay type: in vivo; settings: for inhibition at 100 mg/kg: Rattus norvegicus, Lymphocyte, po, 100 mpk orally in rats, prednisolone challenge
Text: The analysis of both in vivo activity and liver selectivity may be accomplished using a single pharmacology study, involving a prednisolone challenge administered to rats.
Systemic glucocorticoid activity leads to an anti-inflammatory response, which is the result of a GR-linked suppression of lymphocytic activity.
Rat Prednisolone Challenge Model for Evaluation of Liver-Targeted Glucocorticoid Receptor Antagonists
Six hours following the prednisolone challenge, rats are euthanized with CO2, and bled via cardiac puncture for evaluation of blood lymphocytes and plasma drug levels. 7 mm liver biopsy punches are harvested for evaluation of tyrosine aminotransferase (TAT), hepatic glycogen and GR antagonist levels. Additional liver tissue, retroperitoneal fat, skeletal muscle, kidney and skin from an ear biopsy are also removed for isolation an evaluation of mRNA.

HPA axis = test: Mouse hypothalamic-pituitary-adrenal (HPA) activation model; assay type: in vivo; settings: for circulating level of ACTH / circulating level of corticosterone: oral dose, normal mice (FIG. 3)
Text: Hypothalamic stimulation triggered by a suppressed systemic glucocorticoid leads to the secretion of adrenocorticotrophic hormone (ACTH) by the pituitary gland. ACTH acts on the adrenal gland to stimulate the production of endogenous glucorticoids like cortisol (in man) or corticosterone (in rodents). […] Analogs like Compound 1 may thus have an improved efficacy and safety profile for the treatment of metabolic diseases like diabetes and obesity.
Mouse Hypothalamic-Pituitary-Adrenal (HPA) Activation Model
Non-fasted CD-1 male mice, weighing approximately 25 g, are dosed with vehicle, RU-486 (30-100 mg/kg), or GR antagonist (30-100 mg/kg) at 0800 hr when corticosterone levels are low. Two hours later, mice are euthanized with CO2, bled by cardiac puncture, and plasma analyzed for corticosterone by mass spectroscopy and for adrenocorticotropic hormone (ACTH) levels by ELISA. Brains and plasma are also removed for analysis of GR antagonist levels.

[3] = 10 mpk prednisolone, normal rats, 7-hour experiment
[4] = read-out: Inhibition of GR-mediated responses: Glycogen
[5] = read-out: Inhibition of GR-mediated responses: Lymphocytes
[6] = read-out: Inhibition of GR-mediated responses: TAT
[7] = 100 mpk, CD-1 male mice, two hours after dosing
[8] = 30 mpk orally, rat prednisolone challenge
[9] = rat prednisolone challenge, 100 mpk

| Structure (SMILES) | pIC50 [1] | pIC50 [2] | circulating level of ACTH (HPA axis) | circulating level of corticosterone (HPA axis) | inhibition at 100 mg/kg (GR-mediated responses; [4]) [%] | inhibition at 100 mg/kg (GR-mediated responses; [5]) [%] | inhibition at 100 mg/kg (GR-mediated responses; [6]) [%] | also measured |
| --- | --- | --- | --- | --- | --- | --- | --- | --- |
| CC#C[C@]1(O)CC[C@H]2[C@@H]3CCC4=CC(=O)CCC4=C3[C@@H](c3ccc(N(C)CCO[C@H]4CC[C@@]5(C)[C@@H](C4)C[C@@H](O)[C@@H]4[C@@H]5C[C@H](O)[C@]5(C)[C@@H]([C@H](C)CCC(=O)O)CC[C@@H]45)c(F)c3)C[C@@]21C [Example 3, (3β,5β,7α,12α)-7,12-dihydroxy-3-{2-[{4-[17β-hydroxy-3-oxo-17α-prop-1-ynylestra-4,9-dien-11β-yl]-2-fluorophenyl}(methyl)amino]ethoxy}cholan-24-oic acid] | 8.70 | 8.35 |  |  |  |  |  |  |
| C[C@]12C=CC(=O)C=C1CC[C@@H]1[C@@H]2[C@@H](O)C[C@@]2(C)[C@H]1CC[C@]2(O)C(=O)CO [prednisolone] |  |  |  |  |  |  |  | circulating lymphocyte levels (GR-mediated responses; 10 mpk prednisolone, normal rats): decrease; increase in the deposition of hepatic glycogen (GR-mediated responses; [3]): ~60%; induction of tyrosine aminotransferase (TAT) (GR-mediated responses; [3]): 3 fold |
| CC#C[C@]1(O)CC[C@H]2[C@@H]3CCC4=CC(=O)CCC4=C3[C@@H](c3ccc(N(C)CCO[C@H]4CC[C@@]5(C)[C@@H](C4)C[C@@H](O)[C@@H]4[C@@H]5C[C@H](O)[C@]5(C)[C@@H]([C@H](C)CCC(=O)O)CC[C@@H]45)cc3)C[C@@]21C [Example 1, (3β,5β,7α,12α)-7,12-Dihydroxy-3-{2-[{4-[17β-hydroxy-3-oxo-17α-prop-1-ynylestra-4,9-dien-11β-yl]phenyl}(methyl)amino]ethoxy}cholan-24-oic acid] | 8.44 | 8.06 | lack of change | lack of change | 111 | 35 | 85 | stimulation of the HPA axis (HPA axis; mice, dose similar to RU-38486 (FIG. 3)): fails to stimulate; selectivity for hepatic GR vs. systemic effects (GR-mediated responses; rat prednisolone challenge, doses as in Table I): liver-selective pharmacology |
| CC#C[C@]1(O)CC[C@H]2[C@@H]3CCC4=CC(=O)CCC4=C3[C@@H](c3ccc(OCCO[C@H]4CC[C@@]5(C)C(C4)C[C@@H](O)[C@H]4[C@@H]6CC[C@H]([C@H](C)CCC(=O)O)[C@@]6(C)[C@@H](O)C[C@@H]45)c(C)c3)C[C@@]21C (stereo partly drawn) [Example 2, (3β,7α,12α)-7,12-dihydroxy-3-(2-(4-(17β-hydroxy-3-oxo-17α-prop-1-ynylestra-4,9-dien-11β-yl)-2-methylphenoxy)ethoxy)cholan-24-oic acid] | 8.55 | 8.64 |  |  |  |  |  |  |
| CC#C[C@]1(O)[C@H](C)C[C@H]2[C@@H]3CCC4=CC(=O)CCC4=C3[C@@H](c3ccc(N(C)CCO[C@H]4CC[C@@]5(C)[C@@H](C4)C[C@@H](O)[C@@H]4[C@@H]5C[C@H](O)[C@]5(C)[C@@H]([C@H](C)CCC(=O)O)CC[C@@H]45)cc3)C[C@@]21C [Example 4, (3β,5β,7α,12α)-7,12-Dihydroxy-3-{2-[{4-[17β-hydroxy-16α-methyl-3-oxo17α-prop-1-ynylestra-4,9-dien-11β-yl]phenyl}(methyl)amino]ethoxy}cholan-24-oic acid] |  | 8.80 |  |  |  |  |  | pIC50 ([1]; 3(H)-dex displacement, hGR extract from Sf9 cells, read-out: GR Binding (IC50)): 8.48 |
| CC#C[C@]1(O)CC[C@H]2[C@@H]3CCC4=CC(=O)CCC4=C3[C@@H](c3ccc(N(C)C)cc3)C[C@@]21C [RU-38486] |  |  | increases | increases | 74 | 108 | 100 | ACTH level compared to vehicle controls (HPA axis; [7]): significantly increases; corticosterone level compared to vehicle controls (HPA axis; [7]): significantly increases; block of agonist effect on TAT induction (GR-mediated responses; [8]): completely blocks; block of lymphopenic response produced by prednisolone (GR-mediated responses; [8]): ability to block; suppression of prednisolone-induced deposition of hepatic glycogen (GR-mediated responses; [8]): completely suppressed; block of hepatic glucocorticoid responses to prednisolone (TAT, glycogen) (GR-mediated responses; [9]): completely antagonizes; effect on systemic (peripheral) glucocorticoid response to prednisolone (GR-mediated responses; [9]): completely antagonizes |
